Reference: patent publication US9975885B2, “Broad-spectrum non-covalent coronavirus protease inhibitors” (priority 2016, dated 2018)
Marks after values point to notes of the source that are not given here.

Legend:
HKU4-3CL^pro = HKU4-3CL^pro (Bat coronavirus HKU4 (BtCoV) (BtCoV/HKU4/2004), UniProt P0C6W3); type: biochemical
SARS-3CL^pro = SARS-3CL^pro (Severe acute respiratory syndrome coronavirus (SARS-CoV), UniProt P0C6X7); type: biochemical
NL63-3CL^pro = NL63-3CL^pro (Human coronavirus NL63 (HCoV-NL63), UniProt P0C6X5); assay: biochemical
[1] = system: Ten CoV 3CL^pro's (FIPV-, PEDV-, NL63-, HKU1-, OC43-, SARS-, HKU4-, HKU5-, HKU9-, IBV-3CL^pro); type: biochemical, coronaviruses (α-, β-, γ-CoV)
HKU5-3CL^pro = HKU5-3CL^pro (Bat coronavirus HKU5 (BtCoV) (BtCoV/HKU5/2004), UniProt P0C6W4); type: biochemical
OC43-3CL^pro = OC43-3CL^pro (Human coronavirus OC43 (HCoV-OC43), UniProt P0C6X6); type: biochemical
HKU1-3CL^pro = HKU1-3CL^pro (Human coronavirus HKU1 (isolate N1) (HCoV-HKU1), UniProt P0C6X2); assay: biochemical
FIPV-3CL^pro = FIPV-3CL^pro (Feline coronavirus (strain FIPV WSU-79/1146) (FCoV), UniProt Q98VG9); assay: biochemical
PEDV-3CL^pro = PEDV-3CL^pro (Porcine epidemic diarrhea virus (strain CV777) (PEDV), UniProt P0C6Y4); assay: biochemical
Chain of PEDV-3CL^pro (P0C6Y4 2998-3299 limits assumed): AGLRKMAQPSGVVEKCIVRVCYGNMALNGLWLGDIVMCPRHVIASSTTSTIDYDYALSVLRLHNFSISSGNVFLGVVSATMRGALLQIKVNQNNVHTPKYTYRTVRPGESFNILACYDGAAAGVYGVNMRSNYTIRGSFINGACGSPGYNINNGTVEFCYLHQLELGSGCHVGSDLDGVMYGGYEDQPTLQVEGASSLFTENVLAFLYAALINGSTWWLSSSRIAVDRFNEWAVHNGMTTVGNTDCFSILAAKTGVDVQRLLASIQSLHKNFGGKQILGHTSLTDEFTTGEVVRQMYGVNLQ

Chain of OC43-3CL^pro (P0C6X6 3247-3549 limits assumed): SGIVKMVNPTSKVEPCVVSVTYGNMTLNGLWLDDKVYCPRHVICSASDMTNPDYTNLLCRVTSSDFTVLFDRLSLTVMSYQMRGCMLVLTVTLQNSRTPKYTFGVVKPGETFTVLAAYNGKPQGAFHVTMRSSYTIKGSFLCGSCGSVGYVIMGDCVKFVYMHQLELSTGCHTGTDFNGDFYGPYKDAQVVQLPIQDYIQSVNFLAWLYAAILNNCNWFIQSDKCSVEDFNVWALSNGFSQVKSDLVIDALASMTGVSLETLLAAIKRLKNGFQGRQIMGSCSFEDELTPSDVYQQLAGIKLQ
Chain of FIPV-3CL^pro (Q98VG9 2904-3205 limits assumed): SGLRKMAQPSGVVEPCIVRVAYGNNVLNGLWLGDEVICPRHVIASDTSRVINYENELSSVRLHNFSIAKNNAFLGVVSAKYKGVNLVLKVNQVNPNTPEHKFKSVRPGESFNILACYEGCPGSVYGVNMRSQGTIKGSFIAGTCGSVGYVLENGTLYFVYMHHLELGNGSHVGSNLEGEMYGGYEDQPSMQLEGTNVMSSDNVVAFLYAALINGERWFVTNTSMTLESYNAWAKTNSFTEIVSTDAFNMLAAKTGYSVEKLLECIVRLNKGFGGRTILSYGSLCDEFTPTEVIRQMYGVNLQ
Chain of HKU4-3CL^pro (P0C6W3 3292-3597 limits assumed): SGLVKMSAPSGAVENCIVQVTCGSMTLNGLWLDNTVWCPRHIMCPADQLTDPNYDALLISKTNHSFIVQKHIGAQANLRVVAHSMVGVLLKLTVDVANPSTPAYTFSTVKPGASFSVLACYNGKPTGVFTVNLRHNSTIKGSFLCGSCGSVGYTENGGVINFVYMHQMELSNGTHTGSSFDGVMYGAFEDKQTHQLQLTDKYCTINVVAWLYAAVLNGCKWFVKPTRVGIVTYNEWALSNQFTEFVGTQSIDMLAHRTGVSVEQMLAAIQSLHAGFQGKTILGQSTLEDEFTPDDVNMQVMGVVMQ
Chain of HKU5-3CL^pro (P0C6W4 3339-3644 limits assumed): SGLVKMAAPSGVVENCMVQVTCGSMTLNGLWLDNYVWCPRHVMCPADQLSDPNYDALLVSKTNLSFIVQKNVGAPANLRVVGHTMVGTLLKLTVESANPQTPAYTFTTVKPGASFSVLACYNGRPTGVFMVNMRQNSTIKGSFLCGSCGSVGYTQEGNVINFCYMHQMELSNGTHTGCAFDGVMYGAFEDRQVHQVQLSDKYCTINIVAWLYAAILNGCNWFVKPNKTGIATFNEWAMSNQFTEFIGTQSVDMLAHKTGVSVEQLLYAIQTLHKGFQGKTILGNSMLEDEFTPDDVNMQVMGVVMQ
Chain of NL63-3CL^pro (P0C6X5 2940-3242 limits assumed): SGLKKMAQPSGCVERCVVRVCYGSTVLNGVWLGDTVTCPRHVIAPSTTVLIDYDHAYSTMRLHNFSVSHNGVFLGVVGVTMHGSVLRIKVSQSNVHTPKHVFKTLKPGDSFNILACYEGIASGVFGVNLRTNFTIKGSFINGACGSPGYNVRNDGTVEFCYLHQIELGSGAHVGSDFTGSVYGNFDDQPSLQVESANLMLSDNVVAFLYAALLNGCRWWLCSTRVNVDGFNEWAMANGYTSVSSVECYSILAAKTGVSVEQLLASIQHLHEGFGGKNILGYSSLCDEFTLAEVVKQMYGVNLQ
Chain of HKU1-3CL^pro (P0C6X2 3335-3637 limits assumed): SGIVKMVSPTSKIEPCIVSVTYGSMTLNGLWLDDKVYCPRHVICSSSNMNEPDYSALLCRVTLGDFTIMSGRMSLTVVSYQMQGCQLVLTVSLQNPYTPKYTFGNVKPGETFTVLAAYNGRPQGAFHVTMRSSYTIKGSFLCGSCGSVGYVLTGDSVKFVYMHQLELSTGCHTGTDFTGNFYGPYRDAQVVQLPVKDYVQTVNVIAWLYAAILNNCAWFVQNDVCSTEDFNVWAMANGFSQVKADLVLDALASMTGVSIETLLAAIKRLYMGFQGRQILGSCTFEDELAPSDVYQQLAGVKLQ

SMILES: CC(C)NC(=O)C(c1ccsc1)N(C(=O)Cn1nnc2ccccc21)c1ccc(NC(=O)C2CC2)cc1 (centres unmarked) [Compound 29, N-(4-(2-(1H-benzo[d][1,2,3]triazol-1-yl)-N-(2-(isopropylamino)-2-oxo-1-(thiophen-3-yl)ethyl)acetamido)phenyl)cyclopropanecarboxamide]
- IC50 (HKU4-3CL^pro): 2 ± 0.2 µM
- IC50 (SARS-3CL^pro): 8.3 ± 1.5 µM
- IC50 (NL63-3CL^pro): 8.1 ± 1.6 µM
- Score (performance metric score) [1]: 6.3*
- IC50 (HKU5-3CL^pro): 2.4 ± 0.3 µM
- IC50 (OC43-3CL^pro): 11.1 ± 1.2 µM

SMILES: COc1cccc(C(C(=O)NCc2ccccc2)N(C(=O)Cn2nnc3ccccc32)c2ccc(NC(=O)C(C)C)cc2)c1 (centres unmarked) [Compound 14, N-(4-(2-(1H-benzo[d][1,2,3]triazol-1-yl)-N-(2-(benzylamino)-1-(3-methoxyphenyl)-2-oxoethyl)acetamido)phenyl)isobutyramide]
- IC50 (HKU4-3CL^pro): 2.4 ± 0.2 µM
- IC50 HKU4 (HKU4-3CL^pro): low micromolar
- IC50 (SARS-3CL^pro): 3.5 ± 0.4 µM
- IC50 SARS (SARS-3CL^pro): low micromolar
- Gini Coefficient [1]: 0.33
- Score (performance metric score) [1]: 6.6
- IC50 (HKU5-3CL^pro): 2.2 ± 0.3 µM
- IC50 HKU5 (HKU5-3CL^pro): low micromolar
- IC50 (HKU1-3CL^pro): 1.8 ± 0.3 µM
- IC50 HKU1 (HKU1-3CL^pro): low micromolar

SMILES: CC(C)(C)NC(=O)C(c1cccnc1)N(C(=O)c1c[nH]cn1)c1ccc(C2CCCC2)cc1 (centres unmarked) [Compound 41, N-(2-(tert-butylamino)-2-oxo-1-(pyridin-3-yl)ethyl)-N-(4-cyclopentylphenyl)-1H-imidazole-4-carboxamide]
- IC50 (HKU4-3CL^pro): 19.8 ± 1.5 µM
- IC50 (SARS-3CL^pro): 5.3 ± 0.5 µM
- Gini Coefficient [1]: 0.26
- Score (performance metric score) [1]: 6.2
- IC50 (HKU5-3CL^pro): 19.1 ± 2 µM
- IC50 (HKU1-3CL^pro): 5 ± 0.6 µM
- IC50 (FIPV-3CL^pro): 18.7 ± 2 µM
- IC50 (PEDV-3CL^pro): 10.5 ± 0.9 µM

SMILES: CC(C)(C)NC(=O)C(c1cccnc1)N(C(=O)c1c[nH]cn1)c1ccc(C2CCCCC2)cc1 (centres unmarked) [Compound 42, N-(2-(tert-butylamino)-2-oxo-1-(pyridin-3-yl)ethyl)-N-(4-cyclohexylphenyl)-1H-imidazole-4-carboxamide]
- IC50 (HKU4-3CL^pro): 27 ± 4.1 µM
- IC50 (SARS-3CL^pro): 6.3 ± 0.5 µM
- Gini Coefficient [1]: 0.18
- Score (performance metric score) [1]: 6.6
- IC50 (HKU5-3CL^pro): 4.3 ± 1 µM
- IC50 (OC43-3CL^pro): 63.1 ± 12 µM
- IC50 (HKU1-3CL^pro): 11.6 ± 1.5 µM
- IC50 (FIPV-3CL^pro): 39.7 ± 5.7 µM
- IC50 (PEDV-3CL^pro): 26.2 ± 2.4 µM

SMILES: O=C(Nc1ccc(N(C(=O)Cn2nnc3ccccc32)C(C(=O)NCc2cccnc2)c2ccsc2)cc1)C1CC1 (centres unmarked) [Compound 34, N-(4-(2-(1H-benzo[d][1,2,3]triazol-1-yl)-N-(2-oxo-2-((pyridin-3-ylmethyl)amino)-1-(thiophen-3-yl)ethyl)acetamido)phenyl)cyclopropanecarboxamide]
- IC50 (SARS-3CL^pro): 9.9 ± 0.9 µM
- IC50 (NL63-3CL^pro): 15.6 ± 1.3 µM
- IC50 (HKU5-3CL^pro): 2.1 ± 0.2 µM
- IC50 (OC43-3CL^pro): 8.9 ± 0.5 µM
- IC50 (HKU1-3CL^pro): 7.4 ± 1.1 µM
- IC50 (FIPV-3CL^pro): 27.5 ± 3.8 µM

SMILES: O=C(Nc1ccc(N(C(=O)Cn2nnc3ccccc32)C(C(=O)NC2CCCCC2)c2ccsc2)cc1)C1CC1 (centres unmarked) [Compound 67, N-(4-(2-(1H-benzo[d][1,2,3]triazol-1-yl)-N-(2-(cyclohexylamino)-2-oxo-1-(thiophen-3-yl)ethyl)acetamido)phenyl)cyclopropanecarboxamide]
- IC50 (HKU4-3CL^pro): 0.7 ± 0.1 µM
- IC50 HKU4 (HKU4-3CL^pro): sub-micromolar
- inhibition of SARS-3CL^pro (SARS-3CL^pro): not tolerated
- inhibition of NL63-3CL^pro (NL63-3CL^pro): not tolerated
- Gini Coefficient [1]: 0.39
- Score (performance metric score) [1]: 8.3*
- IC50 (HKU5-3CL^pro): 0.6 ± 0.1 µM
- IC50 HKU5 (HKU5-3CL^pro): sub-micromolar
- inhibition of OC43-3CL^pro (OC43-3CL^pro): not tolerated

SMILES: CC(C)C(=O)Nc1ccc(N(C(=O)Cn2nnc3ccccc32)C(C(=O)NCc2cccnc2)c2cccc(F)c2)cc1 (centres unmarked) [Compound 6, N-(4-(2-(1H-benzo[d][1,2,3]triazol-1-yl)-N-(1-(3-fluorophenyl)-2-oxo-2-((pyridin-3-ylmethyl)amino)ethyl)acetamido)phenyl)isobutyramide]
- IC50 (HKU4-3CL^pro): 2 ± 0.1 µM
- IC50 (SARS-3CL^pro): 5.5 ± 0.7 µM
- IC50 (HKU5-3CL^pro): 2.5 ± 0.2 µM
- IC50 (OC43-3CL^pro): 10 ± 1.9 µM
- IC50 (HKU1-3CL^pro): 6.8 ± 1.9 µM
- inhibition at 100 µM (HKU1-3CL^pro; read-out: inhibition of HKU1-3CL^pro): > 50%
- IC50 (FIPV-3CL^pro): 13.8 ± 1.1 µM
- IC50 (PEDV-3CL^pro): 8.3 ± 1.2 µM
- inhibition at 100 µM (PEDV-3CL^pro; read-out: inhibition of PEDV-3CL^pro): > 50%

SMILES: CC(C)(C)NC(=O)C(c1ccsc1)N(C(=O)Cn1cnc2ccccc21)c1ccc(NC(=O)C2CC2)cc1 (centres unmarked) [Compound 27, N-(4-(2-(1H-benzo[d]imidazol-1-yl)-N-(2-(tert-butylamino)-2-oxo-1-(thiophen-3-yl)ethyl)acetamido)phenyl)cyclopropanecarboxamide]
- IC50 (HKU4-3CL^pro): 9.6 ± 1 µM
- Gini Coefficient [1]: 0.37
- Score (performance metric score) [1]: 11.0
- IC50 (HKU5-3CL^pro): 9.7 ± 1.6 µM
- IC50 (OC43-3CL^pro): 16.3 ± 2.1 µM
